Test in all cases: pIC50, kinobeads binding competition
Common to all, as to settings: cell material: Jurkat lysate

One assay concerns the target MARK2 (UniProt Q7KZI7).
A further assay deals with T1, ICK (UniProt Q9UPZ9).
T1 sequence (whole entry): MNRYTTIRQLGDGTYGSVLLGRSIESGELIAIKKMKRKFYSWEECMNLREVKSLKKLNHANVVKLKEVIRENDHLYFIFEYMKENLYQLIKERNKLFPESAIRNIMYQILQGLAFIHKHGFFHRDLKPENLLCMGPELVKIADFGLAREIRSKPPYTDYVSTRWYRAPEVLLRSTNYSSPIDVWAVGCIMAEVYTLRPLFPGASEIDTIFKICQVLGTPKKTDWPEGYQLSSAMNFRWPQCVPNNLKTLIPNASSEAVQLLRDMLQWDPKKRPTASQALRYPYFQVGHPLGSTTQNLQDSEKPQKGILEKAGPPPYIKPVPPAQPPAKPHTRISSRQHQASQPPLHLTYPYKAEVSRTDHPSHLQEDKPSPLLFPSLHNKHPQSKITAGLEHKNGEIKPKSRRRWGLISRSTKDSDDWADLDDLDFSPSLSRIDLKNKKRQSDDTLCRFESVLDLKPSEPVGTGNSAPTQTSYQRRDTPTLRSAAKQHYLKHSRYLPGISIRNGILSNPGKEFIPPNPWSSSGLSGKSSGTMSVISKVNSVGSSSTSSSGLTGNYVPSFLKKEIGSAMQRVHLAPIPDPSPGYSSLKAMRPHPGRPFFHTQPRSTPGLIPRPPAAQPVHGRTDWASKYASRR

Another assay addresses T2, MASTL (UniProt Q96GX5).
T2 sequence (whole entry): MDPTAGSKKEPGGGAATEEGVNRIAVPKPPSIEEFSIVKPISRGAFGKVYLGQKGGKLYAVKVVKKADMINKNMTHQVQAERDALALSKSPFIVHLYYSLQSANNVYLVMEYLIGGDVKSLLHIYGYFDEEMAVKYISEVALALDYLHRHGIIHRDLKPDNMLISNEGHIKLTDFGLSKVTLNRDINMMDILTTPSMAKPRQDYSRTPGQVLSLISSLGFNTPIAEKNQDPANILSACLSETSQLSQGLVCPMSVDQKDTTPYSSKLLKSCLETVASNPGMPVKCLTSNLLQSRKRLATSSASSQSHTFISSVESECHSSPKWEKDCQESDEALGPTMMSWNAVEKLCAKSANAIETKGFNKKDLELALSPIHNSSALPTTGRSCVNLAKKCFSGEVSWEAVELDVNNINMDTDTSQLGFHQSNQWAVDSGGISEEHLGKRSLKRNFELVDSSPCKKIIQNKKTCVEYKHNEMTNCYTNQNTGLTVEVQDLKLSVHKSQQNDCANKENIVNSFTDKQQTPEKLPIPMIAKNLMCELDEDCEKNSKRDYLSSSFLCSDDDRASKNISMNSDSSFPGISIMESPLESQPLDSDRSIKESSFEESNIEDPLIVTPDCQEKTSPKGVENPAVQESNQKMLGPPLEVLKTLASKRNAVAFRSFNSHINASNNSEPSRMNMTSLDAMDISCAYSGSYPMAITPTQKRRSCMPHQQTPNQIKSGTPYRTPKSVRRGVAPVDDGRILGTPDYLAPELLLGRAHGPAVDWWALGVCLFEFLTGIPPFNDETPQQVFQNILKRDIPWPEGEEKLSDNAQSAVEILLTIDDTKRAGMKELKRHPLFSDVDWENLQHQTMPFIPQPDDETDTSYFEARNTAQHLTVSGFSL

For another assay, the target named is T3, UniProt Q8TBX8.
T3 sequence (whole entry): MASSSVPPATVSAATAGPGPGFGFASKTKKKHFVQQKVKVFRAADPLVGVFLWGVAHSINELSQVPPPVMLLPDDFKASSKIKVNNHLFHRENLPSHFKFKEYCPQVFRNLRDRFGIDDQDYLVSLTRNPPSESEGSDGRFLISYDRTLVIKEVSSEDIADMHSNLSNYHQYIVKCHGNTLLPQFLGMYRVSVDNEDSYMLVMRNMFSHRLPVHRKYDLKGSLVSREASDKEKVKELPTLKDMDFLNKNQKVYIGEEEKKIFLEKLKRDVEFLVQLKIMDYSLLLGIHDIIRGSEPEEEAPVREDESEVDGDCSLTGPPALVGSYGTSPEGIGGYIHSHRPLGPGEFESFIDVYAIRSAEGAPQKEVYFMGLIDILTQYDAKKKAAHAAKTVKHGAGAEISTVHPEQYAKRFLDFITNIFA

For a further assay, the target named is BRAF (UniProt P15056).
Chain of BRAF (P15056 whole entry): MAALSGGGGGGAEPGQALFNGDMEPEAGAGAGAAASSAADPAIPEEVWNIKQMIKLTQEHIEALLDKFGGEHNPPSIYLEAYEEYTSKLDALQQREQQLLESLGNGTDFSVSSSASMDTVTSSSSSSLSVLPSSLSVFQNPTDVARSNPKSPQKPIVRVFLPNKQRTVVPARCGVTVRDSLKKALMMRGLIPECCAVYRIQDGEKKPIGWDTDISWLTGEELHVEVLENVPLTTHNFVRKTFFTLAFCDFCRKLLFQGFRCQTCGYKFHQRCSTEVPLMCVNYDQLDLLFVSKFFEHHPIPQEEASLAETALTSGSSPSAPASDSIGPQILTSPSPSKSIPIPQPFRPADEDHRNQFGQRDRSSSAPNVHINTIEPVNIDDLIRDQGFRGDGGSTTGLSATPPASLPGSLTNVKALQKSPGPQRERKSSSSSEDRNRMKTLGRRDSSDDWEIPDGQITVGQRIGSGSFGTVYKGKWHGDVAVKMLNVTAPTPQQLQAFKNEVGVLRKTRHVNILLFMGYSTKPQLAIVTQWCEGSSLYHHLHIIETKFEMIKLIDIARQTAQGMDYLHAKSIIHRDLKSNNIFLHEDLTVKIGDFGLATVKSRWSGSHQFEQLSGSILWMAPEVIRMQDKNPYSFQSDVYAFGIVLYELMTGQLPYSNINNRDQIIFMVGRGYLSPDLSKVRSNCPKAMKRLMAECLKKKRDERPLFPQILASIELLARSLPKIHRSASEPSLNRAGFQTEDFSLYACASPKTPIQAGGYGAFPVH
For the next assay, the target named is T4, IRAK4 (UniProt Q9NWZ3).
T4 sequence (whole entry): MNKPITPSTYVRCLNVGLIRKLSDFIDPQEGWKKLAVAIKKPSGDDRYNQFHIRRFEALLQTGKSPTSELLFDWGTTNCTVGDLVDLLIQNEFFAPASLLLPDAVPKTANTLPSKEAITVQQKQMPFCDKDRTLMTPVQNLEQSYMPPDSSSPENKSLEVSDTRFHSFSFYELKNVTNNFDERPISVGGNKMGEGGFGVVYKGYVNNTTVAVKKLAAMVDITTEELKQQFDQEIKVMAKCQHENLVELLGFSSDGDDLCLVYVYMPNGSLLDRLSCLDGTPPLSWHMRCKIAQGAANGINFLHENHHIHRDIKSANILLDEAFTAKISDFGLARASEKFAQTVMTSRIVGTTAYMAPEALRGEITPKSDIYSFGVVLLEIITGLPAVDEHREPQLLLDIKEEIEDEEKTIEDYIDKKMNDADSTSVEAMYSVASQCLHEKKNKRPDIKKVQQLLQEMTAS

The next assay has as its target T5, ACVR1 (UniProt Q04771).
T5 sequence (whole entry): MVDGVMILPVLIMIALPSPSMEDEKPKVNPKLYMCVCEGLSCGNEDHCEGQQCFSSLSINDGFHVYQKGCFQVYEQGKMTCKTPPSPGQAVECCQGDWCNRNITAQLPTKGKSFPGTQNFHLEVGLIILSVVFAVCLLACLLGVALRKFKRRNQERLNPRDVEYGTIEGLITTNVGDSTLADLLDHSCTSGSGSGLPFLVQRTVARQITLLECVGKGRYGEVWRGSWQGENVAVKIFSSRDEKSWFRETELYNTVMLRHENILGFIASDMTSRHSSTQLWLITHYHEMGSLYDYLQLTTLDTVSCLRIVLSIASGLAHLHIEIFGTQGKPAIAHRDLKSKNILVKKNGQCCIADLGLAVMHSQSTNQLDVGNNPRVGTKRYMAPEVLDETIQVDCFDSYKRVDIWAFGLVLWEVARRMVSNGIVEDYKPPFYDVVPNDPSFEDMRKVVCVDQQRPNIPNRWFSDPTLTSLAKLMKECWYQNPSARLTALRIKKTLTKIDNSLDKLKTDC

Chain of MARK2 (Q7KZI7 whole entry): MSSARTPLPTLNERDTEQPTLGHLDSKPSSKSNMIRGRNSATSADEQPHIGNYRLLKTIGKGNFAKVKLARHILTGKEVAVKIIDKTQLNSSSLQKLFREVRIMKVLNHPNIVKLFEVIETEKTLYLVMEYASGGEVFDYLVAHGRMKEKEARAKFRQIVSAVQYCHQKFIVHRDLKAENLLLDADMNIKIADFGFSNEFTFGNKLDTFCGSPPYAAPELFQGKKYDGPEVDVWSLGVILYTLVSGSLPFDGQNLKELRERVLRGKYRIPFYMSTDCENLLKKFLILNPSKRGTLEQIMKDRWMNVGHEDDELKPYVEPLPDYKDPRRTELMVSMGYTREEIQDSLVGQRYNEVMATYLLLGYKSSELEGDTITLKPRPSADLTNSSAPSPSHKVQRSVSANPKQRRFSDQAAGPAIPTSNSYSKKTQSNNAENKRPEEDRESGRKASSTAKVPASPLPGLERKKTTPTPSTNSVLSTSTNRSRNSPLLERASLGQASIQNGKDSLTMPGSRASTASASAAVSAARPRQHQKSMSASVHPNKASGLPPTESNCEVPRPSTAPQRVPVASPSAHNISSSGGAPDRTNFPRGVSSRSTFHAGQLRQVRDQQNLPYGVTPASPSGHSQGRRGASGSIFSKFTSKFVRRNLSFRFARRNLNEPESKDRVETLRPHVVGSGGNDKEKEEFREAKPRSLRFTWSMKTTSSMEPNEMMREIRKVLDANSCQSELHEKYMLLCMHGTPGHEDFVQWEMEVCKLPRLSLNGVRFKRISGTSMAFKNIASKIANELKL

As to `CCc1cnn2c(NCc3ccc[n+]([O-])c3)cc(N3CCCC[C@H]3CCO)nc12` [dinaciclib], the pIC50 at MARK2 is below 4.52; at ICK, 6.39; on MASTL, below 4.52; on UniProt Q8TBX8, below 4.52; at BRAF it was below 4.52; at IRAK4 it was below 4.52. On ACVR1, this compound gave a pIC50 below 4.52.

One may read the pIC50 as the IC50 on a negative log10 scale, so that one unit is a factor of ten. Low readings indicate a large IC50, high ones a small IC50.

Source of the values: the supplement of paper PMC12076712.
